Data on 24 compounds can be found in patent publication US7550629B2, “Trifluoromethyl-containing phenylsulfonamide beta amyloid inhibitors” (Wyeth, priority 2006, dated 2009).

Assay [1] has as its system beta amyloid 42. Kind of assay: Aβ40/42 ELISA Assay: Aβ42. Type of assay: cell-based. The following applies: Cricetulus griseus; CHO cells carrying the APP-REP-NL plasmid, 22 hours, sandwich ELISA of medium. The protocol:
(§1) Pharmacology: Aβ40/42 ELISA Assay
(§2) Compounds are diluted from DMSO stocks to 2 μM and below in a cell culture medium. Compounds are then applied to CHO cells carrying the APP-REP-NL plasmid [Sudhir et. al, J. Biol. Chem. 267:25602-25608 (1992)] for a period of 22 hours. After the conditioning period, medium is collected, diluted in assay buffer containing protein, and samples, controls, and synthetic peptide standards are incubated on a prepared ELISA plate. Using a sandwich ELISA with antibodies specifically directed against the carboxyl terminus of beta amyloid 40 or 42 [analogous to the method reported by Haugabook et al., J. Neurosci. Methods 108:171-179 (2001) but using goat anti-mouse IgGl (source: Southern Biotech) as the anchor, 6E10 as the capture antibody (Source: SENETEK), rabbit antiαβ40 and antiαβB42 (source: QCB) and APL-donkey anti-rabbit IgG (H+L, source: Southern Biotech) as the detection antibody], the effect of the compound treatment on the cellular production of extracellular beta amyloid is quantified. Cells treated with compound are subsequently incubated in cell culture medium containing […]. After a short incubation period, MTS/medium containing plates are read in a spectrophotometer to determine the extent to which compound toxicity affected the cell's metabolism and ability to synthesize beta amyloid.
(§3) Test Samples: compound samples are supplied as 20 mM stock solutions in a 100% DMSO solution.
(§4) APP-REP-NL cells: Qualified cell lines are carried from week to week using 1:100 dilutions and are cultured in DMEM supplemented with 1× antibiotic/antimycotic, 200 μg/ml of G418 antibiotic, and 10% certified fetal calf serum. Cells are also banked in liquid nitrogen. Periodically, beta amyloid production is assessed, and cells are either kept in culture or replaced with progenitors at full expression.
(§5) Antibodies: Are from certified lots that have already been qualified in this assay. Antibodies are stored in small frozen aliquots at −80° C. that are thawed and used.
(§6) A compound is considered active if it has an EC50 for Aβ 40 reduction of <100 μM and no toxicity at doses in the vicinity the EC50.
(An ELISA detects its analyte on a solid surface through an enzyme-linked reagent.)

Assay [2] concerns beta amyloid 40. The assay can be described thus: Aβ40/42 ELISA Assay: Aβ40. The format is cell-based. The following applies: Cricetulus griseus; CHO cells carrying the APP-REP-NL plasmid, 22 hours, sandwich ELISA of medium. On the procedure: as §1, §2, §3, §4, §5, §6

What is called EC50 is the concentration that produces a half-maximal response. Lower therefore signals greater potency.

Structures are written as SMILES.

Turning to `O=S(=O)(N[C@H](CO)C(C(F)(F)F)C(F)(F)F)c1ccc(Cl)cc1` [Example 1, 4-Chloro-N-[(1S)-3,3,3-trifluoro-1-(hydroxymethyl)-2-(trifluoromethyl)propyl]benzenesulfonamide], the concentration giving a half-maximal response (EC50) in assay [1] came to 0.177 µM; in assay [2] it was 0.22 µM.
For the compound `COc1cc(S(=O)(=O)NC(CO)C(C(F)(F)F)C(F)(F)F)ccc1Cl` (stereo not drawn) [Example 3, 4-Chloro-3-methoxy-N-(3,3,3-trifluoro-1-hydroxymethyl-2-trifluoromethyl-propyl)-benzenesulfonamide], the EC50 in assay [1] is 13.8 µM; in assay [2], 9.94 µM.
As to `O=S(=O)(NC(CO)C(C(F)(F)F)C(F)(F)F)c1ccc(Cl)c(C(F)(F)F)c1` (stereo not drawn) [Example 4, 4-Chloro-N-(3,3,3-trifluoro-1-hydroxymethyl-2-trifluoromethyl-propyl)-3-trifluoromethyl-benzenesulfonamide], the concentration for a half-maximal effect (EC50) in assay [1] was 89.9 µM; in assay [2] it was 37.7 µM.
The corresponding values for `O=[N+]([O-])c1cc(S(=O)(=O)NC(CO)C(C(F)(F)F)C(F)(F)F)ccc1Cl` (stereo not drawn) [Example 5, 4-Chloro-3-nitro-N-(3,3,3-trifluoro-1-hydroxymethyl-2-trifluoromethyl-propyl)-benzenesulfonamide] are 76.9 µM and 46 µM.
In the case of `CC(=O)c1cccc(S(=O)(=O)NC(CO)C(C(F)(F)F)C(F)(F)F)c1` (stereo not drawn) [Example 6, 3-Acetyl-N-(3,3,3-trifluoro-1-hydroxymethyl-2-trifluoromethyl-propyl)-benzenesulfonamide], the concentration giving a half-maximal response (EC50) came out at 11.2 µM in assay [1] and 13.4 µM in assay [2].
Turning to `O=S(=O)(NC(CO)C(C(F)(F)F)C(F)(F)F)c1ccc(OC(F)F)cc1` (stereo not drawn) [Example 7, 4-(difluoromethoxy)-N-[3,3,3-trifluoro-1-(hydroxymethyl)-2-(trifluoromethyl)propyl]benzenesulfonamide], the EC50 amounted to 4.02 µM in assay [1] and 4.46 µM in assay [2].
Take `O=S(=O)(NC(CO)C(C(F)(F)F)C(F)(F)F)c1cccc(OC(F)F)c1` (stereo not drawn) [Example 8, 3-(difluoromethoxy)-N-[3,3,3-trifluoro-1-(hydroxymethyl)2-(trifluoromethyl)propyl]benzenesulfonamide]: a half-maximal response in assay [2] (EC50) required 47.9 µM. This counts as double-digit micromolar.
For the compound `CCc1ccc(S(=O)(=O)NC(CO)C(C(F)(F)F)C(F)(F)F)cc1` (stereo not drawn) [Example 9, 4-ethyl-N-[3,3,3-trifluoro-1-(hydroxymethyl)-2-(trifluoromethyl)propyl]benzenesulfonamide], the EC50 in assay [1] worked out at 6.75 µM; in assay [2], 7.2 µM.
In the case of `CC(C)c1ccc(S(=O)(=O)NC(CO)C(C(F)(F)F)C(F)(F)F)cc1` (stereo not drawn) [Example 10, 4-isopropyl-N-[3,3,3-trifluoro-1-(hydroxymethyl)-2-(trifluoromethyl)propyl]benzenesulfonamide], the concentration for a half-maximal effect (EC50) in assay [1] was determined as 44.1 µM; in assay [2], 17.7 µM.
Turning to `COc1ccc(S(=O)(=O)NC(CO)C(C(F)(F)F)C(F)(F)F)cc1` (stereo not drawn) [Example 11, 4-methoxy-N-[3,3,3-trifluoro-1-(hydroxymethyl)-2-(trifluoromethyl)propyl]benzenesulfonamide], the EC50 in assay [1] amounted to 6.44 µM; in assay [2] it was 6.81 µM.
Consider `COc1cccc(S(=O)(=O)NC(CO)C(C(F)(F)F)C(F)(F)F)c1` (stereo not drawn) [Example 12, 3-methoxy-N-[3,3,3-trifluoro-1-(hydroxymethyl)-2-(trifluoromethyl)propyl]benzenesulfonamide], for which the EC50 in assay [2] is 24.1 µM.
In assay [2], `CCCc1ccc(S(=O)(=O)NC(CO)C(C(F)(F)F)C(F)(F)F)cc1` (stereo not drawn) [Example 13, 4-propyl-N-[3,3,3-trifluoro-1-(hydroxymethyl)-2-(trifluoromethyl)propyl]benzenesulfonamide] came in with an EC50 of 18 µM.
`Cc1ccc(S(=O)(=O)NC(CO)C(C(F)(F)F)C(F)(F)F)cc1` (stereo not drawn) [Example 14, 4-methyl-N-[3,3,3-trifluoro-1-(hydroxymethyl)-2-(trifluoromethyl)propyl]benzenesulfonamide]: the EC50 in assay [1] is 1.26 µM; in assay [2] it was 1.5 µM.
For the compound `Cc1cccc(S(=O)(=O)NC(CO)C(C(F)(F)F)C(F)(F)F)c1` (stereo not drawn) [Example 15, 3-methyl-N-[3,3,3-trifluoro-1-(hydroxymethyl)-2-(trifluoromethyl)propyl]benzenesulfonamide], the values for the half-maximal effective concentration (EC50) in assay [1] and in assay [2] were 14.5 µM and 15.1 µM, respectively.
Compound `O=S(=O)(NC(CO)C(C(F)(F)F)C(F)(F)F)c1cccc(C(F)(F)F)c1` (stereo not drawn) [Example 16, N-[3,3,3-trifluoro-1-(hydroxymethyl)-2-(trifluoromethyl)propyl]-3-(trifluoromethyl)benzenesulfonamide] registered an EC50 in assay [2] of 28.1 µM.
Regarding `O=S(=O)(NC(CO)C(C(F)(F)F)C(F)(F)F)c1ccc(C(F)(F)F)cc1` (stereo not drawn) [Example 17, N-[3,3,3-trifluoro-1-(hydroxymethyl)-2-(trifluoromethyl)propyl]-4-(trifluoromethyl)benzenesulfonamide], the concentration giving a half-maximal response (EC50) stood at 1.94 µM in assay [1] and 2.29 µM in assay [2].
The corresponding values for `N#Cc1ccc(S(=O)(=O)NC(CO)C(C(F)(F)F)C(F)(F)F)cc1` (stereo not drawn) [Example 18, 4-Cyano-N-(3,3,3-trifluoro-1-hydroxymethyl-2-trifluoromethyl-propyl)-benzenesulfonamide] are 101 µM and 90.7 µM.
Regarding `O=[N+]([O-])c1ccc(S(=O)(=O)NC(CO)C(C(F)(F)F)C(F)(F)F)cc1` (stereo not drawn) [Example 19, 4-nitro-N-(3,3,3-trifluoro-1-hydroxymethyl-2-trifluoromethyl-propyl)-benzenesulfonamide], the 50% effective concentration (EC50) in assay [1] turned out to be 26.8 µM; in assay [2], 27.8 µM.
As for `O=S(=O)(NC(CO)C(C(F)(F)F)C(F)(F)F)c1ccc(OC(F)(F)F)cc1` (stereo not drawn) [Example 20, N-(3,3,3-trifluoro-1-hydroxymethyl-2-trifluoromethyl-propyl)-4-trifluoromethoxy-benzenesulfonamide], the results for the half-maximal effective concentration (EC50) in assay [1] and in assay [2] were 6.42 µM and 8.51 µM, respectively.
For the compound `O=S(=O)(NC(CO)C(C(F)(F)F)C(F)(F)F)c1ccc(Cl)cc1` (stereo not drawn) [Example 21, 4-chloro-N-(3,3,3-trifluoro-1-hydroxymethyl-2-trifluoromethyl-propyl)-benzenesulfonamide], the EC50 in assay [1] stood at 0.932 µM; in assay [2], 0.997 µM.
Regarding `O=S(=O)(NC(CO)C(C(F)(F)F)C(F)(F)F)c1cc(F)cc(F)c1` (stereo not drawn) [Example 22, 3,5-Difluoro-N-(3,3,3-trifluoro-1-hydroxymethyl-2-trifluoromethyl-propyl)-benzenesulfonamide], the EC50 was 6.34 µM in assay [1] and 5.72 µM in assay [2].
For `CSc1cc(S(=O)(=O)NC(CO)C(C(F)(F)F)C(F)(F)F)ccc1Cl` (stereo not drawn) [Example 23, 4-Chloro-3-methylsulfanyl-N-(3,3,3-trifluoro-1-hydroxymethyl-2-trifluoromethyl-propyl)-benzenesulfonamide], a half-maximal response in assay [2] (EC50) required 22.3 µM.
Take `O=S(=O)(NC(CO)C(C(F)(F)F)C(F)(F)F)c1ccc(Cl)c(F)c1` (stereo not drawn) [Example 24, 4-Chloro-3-fluoro-N-(3,3,3-trifluoro-1-hydroxymethyl-2-trifluoromethyl-propyl)-benzenesulfonamide]: the EC50 in assay [1] worked out at 1.14 µM; in assay [2], 1.09 µM.
In assay [2], `O=S(=O)(NC(CO)C(C(F)(F)F)C(F)(F)F)c1cc(Cl)cc(Cl)c1` (stereo not drawn) [Example 36, 3,5-dichloro-N-(3,3,3-trifluoro-1-hydroxymethyl-2-trifluoromethyl-propyl)-benzenesulfonamide] displayed an EC50 of 64 µM.
